Among the data in ChEMBL document CHEMBL3045385, “Design, synthesis and molecular modelling of novel 4-thiazolidinones of potential activity against Gram positive bacteria” (2013) are MIC values, retold here.

≈ marks a conversion by molar mass, not a printed value.

What all share (format): functional
For one test, the system named is Escherichia coli. Briefly: Antibacterial activity against Escherichia coli ATCC 25922 after 24 hr by two-fold serial dilution method. The following applies: ATCC 25922, 24 h.
Another test deals with Salmonella typhimurium. Briefly: Antibacterial activity against Salmonella enterica subsp. enterica serovar Typhimurium after 24 hr by two-fold serial dilution method.
For another test, the system named is Shigella sonnei. In words: Antibacterial activity against Shigella sonnei ATCC 11060 after 24 hr by two-fold serial dilution method. The note with it: ATCC 11060, 24 h.
A further test relates to Bacillus subtilis. In words: Antibacterial activity against Bacillus subtilis ATCC 10400 after 24 hr by two-fold serial dilution method. The following applies: ATCC 10400, 24 h.
In another test the test system is Staphylococcus aureus. Briefly: Antibacterial activity against Staphylococcus aureus ATCC 25293 after 24 hr by two-fold serial dilution method. The note with it: ATCC 25293, 24 h.

For orientation: MIC means the lowest concentration found to suppress growth. Higher therefore signals a less susceptible organism. As to `O=C(N[C@H](CO)[C@H](O)c1ccc([N+](=O)[O-])cc1)C(Cl)Cl` [CHLORAMPHENICOL], the MIC with Escherichia coli was determined as 12.5 µg/mL (≈ 38.7 µM); against Salmonella typhimurium it was 25 µg/mL (≈ 77.4 µM); in the test with Shigella sonnei, 25 µg/mL (≈ 77.4 µM); against Bacillus subtilis it was 6.25 µg/mL (≈ 19.3 µM); against Staphylococcus aureus it was 6.25 µg/mL (≈ 19.3 µM).
